PMC12392461, “Beyond Estrogenicity: A Comparative Assessment of Bisphenol A and Its Alternatives in In Vitro Assays Questions Safety of Replacements” (Environmental Science & Technology, 2025)
Where two headings read alike, the source gives them in different places.

What was measured:
[1] = test system: MCF7 (ARE/MMP); conditions: for IC10, linear transformed / IC10, linear / logIC10: dosing range all; for IC10, MCF7, ARE: MCF7, ARE readout; for IC10, MCF7, MMP: MCF7, MMP readout
Description: (§1) Cell culture conditions and bioassay protocols including response detection are provided in Text S2.1–2.4 and Table S3. − Cell viability was determined from cell confluency using an IncuCyte S3 Live-Cell Analysis System (Sartorius AG, Essen, Germany) before and after exposure, except for SH-SY5Y cells (live–dead staining with Nuclear Green LcS1 and propidium iodide, Abcam, UK). For metabolic activation experiments, cell viability was assessed using the ToxBLAzer DualScreen Kit (Thermo Fisher Scientific) to capture the remaining toxicity in ERα-UAS-bla GripTite after treatment with the aCYP catalyst (details in Text S2.4).
(§2) For ARE, the concentration that triggered an induction ratio of 1.5 (ECIR1.5) was used as the benchmark value, as detailed in Text S2.5. IC10 values also served as a threshold for data analysis in all assays; only concentrations below IC10 were considered when deriving EC10 or ECIR1.5.
(§3) We measured the cytotoxicity of BPA and its alternatives in HEK293H (PPARγ), HEK293T (ERα), H4IIe (AhR CALUX), MCF7 (ARE/MMP), and differentiated SH-SY5Y cells (Table S6). […]
(§4) S2.2: Cell Seeding and Incubation. For all bioassays, cell suspensions in the respective assay medium were dispensed into each well of 384-well plates using a MultiFlo Dispenser (Biotek, (now Agilent), Winooski, VT, U.S.). After seeding, the plates were incubated at 37° C and 5% CO₂ for […]. The final cell densities and plate types were as follows: Black poly-D-lysine […]
(§5) 6500 cells/well, ERα: 5000 cells/well. White 384-well plates with a clear bottom (Product No.
(§6) NYC, U.S.) for AhR: 3250 cells/well. Black Collagen I coated plates were used (Product No.
(§7) S2.3: Chemical Dosing and Assay Analysis Procedures. The dosing procedure and high-throughput assay workflow have been described in detail before. 9 The dosing concentrations […]
(§8) Stock solutions were then either added directly to the respective cell culture medium or evaporated under nitrogen, followed by replenishment with fresh medium. The final solvent content in each well was kept below 1% for methanol, 0% for acetonitrile.
(§9) Dosing plates were prepared as 11 -step serial dilutions using a Hamilton Microlab Star robotic system (Hamilton, Bonaduz, Switzerland), and chemicals were dosed in duplicates by transferring 10 μL twice from the dosing plates to the cell plates . After quantifying cell confluency as described in S2. 4., the exposed cells were incubated at 37° C and 5% CO₂ for an additional 24 h. All chemicals were tested in all assays with at least three independent […]
(§10) S2.4: Cell Viability Measurement s and bioanalytical protocols . The confluency as a measure of cell viability was determined with an IncuCyte S3 Live -Cell Analysis System (Sartorius AG, Essen, Germany). With this method the confluency of cells in a microscopy image are normalized to control wells without cells and compared before and after 24 hours of exposure.
(§11) This method has been described previously 13. […]

[2] = test system: H4IIe (AhR CALUX); conditions: cytotoxicity; for IC10, linear: linear model fit; for logIC10: log-logistic model fit
Description: as §1, §2, §3, §4, §5, §6, §7, §8, §9, §10, §11

[3] = test system: HEK293T (ERα); conditions: for IC10, linear transformed / IC10, linear / logIC10: Bioassay ERα, dosing range all; for IC10, linear transformed / IC10, linear / logIC10 / IC10, HEK293, ERα: cytotoxicity; for IC10, linear: linear model fit; for logIC10: log-logistic model fit; for IC10, HEK293, ERα: HEK293 (ERα assay cells)
Description: as §1, §2, §3, §4, §5, §6, §7, §8, §9, §10, §11

[4] = test system: HEK293H (PPARγ); conditions: for IC10, linear transformed / IC10, linear / logIC10: PPARγ bioassay cytotoxicity; for IC10, linear: linear model; for logIC10: log-logistic model; for IC10, HEK293, PPARγ: cytotoxicity, HEK293 (PPARγ assay cells)
Description: as §1, §2, §3, §4, §5, §6, §7, §8, §9, §10, §11

[5] = test system: Antioxidant response element; experiment: MitoOxTox: oxidative stress response in AREc32; conditions: for EC10, linear / logEC10: Bioassay ARE, dosing range all; for EC10, linear: linear model fit; for logEC10: log-logistic model fit
From the text: (§12) All bioassay media components and the ERα-UAS-bla GripTite and PPARγ-UAS-bla cells were obtained from Thermo Fisher Scientific (Waltham, MA, USA). AREc32 reporter gene cells based on MCF7 were provided by C. Roland Wolf (Cancer Research UK); AhR CALUX cells (H4L7.5c2 derived from H4IIe) were provided by Michael Denison (UC Davis, USA); and SH-SY5Y cells were purchased from Sigma-Aldrich.
as §1
(§13) For ARE, the concentration that triggered an induction ratio of 1.5 (ECIR1.5) was used as the benchmark value, as detailed in Text S2.5. IC10 values also served as a threshold for data analysis in all assays; only concentrations below IC10 were considered when deriving EC10 or ECIR1.5. […]
(§14) S2: Cell culture and bioassays
(§15) S2.1: Cell Culturing Conditions
(§16) All suppliers and sources are given in detail in SI-Excel S3. The bioassay media for the different assays were prepared as follows: Assay medium for ER alpha-UAS-bla GripTite (ERα) and PPAR gamma-UAS-bla 293H (PPARγ) was prepared with 98% Opti-MEM, supplemented with 2% charcoal-stripped FBS, and 100 U/mL penicillin-streptomycin. MitoOxTox and AhR assay medium was comprised of 90% DMEM with GlutaMAX, supplemented with 10% FBS, and 100 U/mL penicillin-streptomycin. Neurotoxicity assay medium consisted of the neurobasal […]
(§17) (1 picture or pasted object on this page, not shown here) […]
(§18) medium, supplemented with 2% B-27 Supplement and 2 mM GlutaMAX Supplement. SH - SY5Y cells were differentiated with 10 µM all-trans retinoic acid prior to the assay.
(§19) S2.2: Cell Seeding and Incubation. For all bioassays, cell suspensions in the respective assay medium were dispensed into each well of 384-well plates using a MultiFlo Dispenser (Biotek, (now Agilent), Winooski, VT, U.S.). After seeding, the plates were incubated at 37° C and 5% CO₂ for […]. The final cell densities and plate types were as follows: Black poly-D-lysine coated 384-well plates (Product No. 354663, Corning Inc., NYC, U.S.) were used for PPARγ:
as §5
(§20) 781098, Greiner, Kremsmünster, Austria) were utilized for the MitoOxTox assay: 2650

[6] = test system: SH-SY5Y cells; experiment: cells; conditions: for EC10: Homo sapiens, SH-SY5Y;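 as to Relative effect potency REPNOI: EC10 of BPA divided by EC10 of the test compound so values above 1 mean more potent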;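 as to Specificity ratio (SRbaseline) SRNOI: ratio of predicted baseline cytotoxicity IC10 to the neurite outgrowth inhibition EC10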
From the text: as §12, §1, §13, §14, §15, §16, §17, §18, §19, §5, §20

[7] = Bioassay ARE, cytotoxicity, linear model fit
[8] = Bioassay ARE, cytotoxicity, log-logistic model fit
[9] = MMP bioassay cytotoxicity, linear model
[10] = MMP bioassay cytotoxicity, log-logistic model
[11] = read-out: EC10, linear transformed

Structure (SMILES) | IC10, linear transformed ([1]; Bioassay ARE, cytotoxicity) | IC10, linear [1, 7] | logIC10 [1, 8] | IC10, linear transformed ([1]; MMP bioassay cytotoxicity) | IC10, linear [1, 9] | logIC10 [1, 10] | IC10, MCF7, ARE ([1]; cytotoxicity) [µM] | IC10, MCF7, MMP ([1]; cytotoxicity) [µM] | IC10, linear ([2]; Bioassay AhR, dosing range all) | logIC10 ([2]; Bioassay AhR, dosing range all) | IC10, linear transformed [3] | IC10, linear [3] | logIC10 [3] | IC10, HEK293, ERα [3] [µM] | IC10, HEK293, PPARγ [4] [µM] | EC10, linear [5] | logEC10 [5] | EC10 ([6]; read-out: EC10, NOI) [M] | EC10 ([6]; read-out: EC10, NOI (M)) [M] | EC10 [6, 11] [M] | also measured
CC(C)(c1cc(Cl)c(O)c(Cl)c1)c1cc(Cl)c(O)c(Cl)c1 [TCBPA, 2,2',6,6'-Tetrachlorobisphenol A] | 7.84E-05 | 8.16E-05 | -4.11 | 9.30E-05 | 7.25E-05 | -4.03 | 78.4 | 93 | no cytotoxicity | -4.05 | 6.86E-06 | 1.51E-05 | -4.77 | 15.1 | 18.4 | no effect | no effect | 0.000322 | 0.000322 | 0.000322 | IC10, linear transformed ([2]; Bioassay AhR, dosing range all): 9.01E-05; IC10, H4IIe, AhR ([2]; H4IIe (AhR assay cells)): 90.1 µM; IC10, linear transformed ([4]; dosing range high): 5.23E-06; IC10, linear ([4]; dosing range high): 1.84E-05; logIC10 ([4]; dosing range high): -4.74; IC10, linear transformed ([4]; dosing range low): 7.55E-07; IC10, linear ([4]; dosing range low): no cytotoxicity; logIC10 ([4]; dosing range low): no cytotoxicity; EC10 ([6]; read-out: logEC10): 0.000324 M; EC10, linear ([6]; NOI bioassay, dosing range all, linear model): masked by cytotoxicity
CC(C)(c1ccc(OCC2CO2)cc1)c1ccc(OCC2CO2)cc1 (stereo not drawn) [BADGE, Bisphenol A diglycidyl ether] | 3.85E-05 | 3.62E-05 | -4.41 | 7.87E-05 | 8.59E-05 | -4.10 | 38.5 | 78.7 | no cytotoxicity | no cytotoxicity | 1.08E-05 | no cytotoxicity | -4.73 | 18.8 | 24 | no effect | no effect | 3.81e-05 | 3.81e-05 | 4.5e-05 | Toxic ratio (TR) TRARE ([1]; against baseline cytotoxicity, ARE readout): 0.61; Toxic ratio (TR) TRMMP ([1]; against baseline cytotoxicity, MMP readout): 0.30; Toxic ratio (TR) TRERα ([3]; against baseline cytotoxicity): 0.54; IC10, linear transformed ([4]; dosing range all): 1.49E-05; IC10, linear ([4]; dosing range all): no cytotoxicity; logIC10 ([4]; dosing range all): -4.62; Toxic ratio (TR) TRPPARγ ([4]; against baseline cytotoxicity): 0.42; oxidative stress response (ARE activation) [5]: lacked any oxidative stress response; EC10 ([6]; read-out: EC10, linear): 3.69e-05 M; EC10 ([6]; read-out: logEC10): 3.8e-05 M; Specificity ratio (SRbaseline) SRNOI ([6]; against baseline cytotoxicity): 0.48; Specificity ratio (SRcytotoxicity) SRNOI ([6]; against experimental cytotoxicity): 1.50; Relative effect potency REPNOI ([6]; relative to BPA): 1.33
